From ChEMBL document CHEMBL5357031, “Design and Synthesis of Cytotoxic Water-Soluble Rocaglaol Derivatives against HEL Cells by Inhibiting Fli-1” (J Nat Prod, 2024)
The source made the active and inactive calls. The rule behind the calls is not given here.

What was measured:
HEL [1] = test: Induction of apoptosis in HEL cells assessed as downregulation of PARP expression at 0.1 to 0.4 uM incubated for 48 hrs by Western blot analysis; format: functional, cell-based; settings: Homo sapiens, dose 0.1-0.4 µM
HEL [2] = test: Induction of apoptosis in HEL cells assessed as downregulation of caspase-3 expression at 0.1 to 0.4 uM incubated for 48 hrs by Western blot analysis; format: functional, cell-based; settings: Homo sapiens, dose 0.1-0.4 µM
HEL [3] = test: Induction of apoptosis in HEL cells assessed as downregulation of caspase-9 expression at 0.1 to 0.4 uM incubated for 48 hrs by Western blot analysis; format: functional, cell-based; settings: Homo sapiens, dose 0.1-0.4 µM
HEL [4] = test: Induction of apoptosis in HEL cells assessed as upregulation of cleaved PARP expression at 0.1 to 0.4 uM incubated for 48 hrs by Western blot analysis; format: functional, cell-based; settings: Homo sapiens, dose 0.1-0.4 µM
HEL [5] = test: Induction of apoptosis in HEL cells assessed as upregulation of cleaved caspase-3 expression at 0.1 to 0.4 uM incubated for 48 hrs by Western blot analysis; format: functional, cell-based; settings: Homo sapiens, dose 0.1-0.4 µM
HEL [6] = test: Induction of apoptosis in HEL cells assessed as upregulation of cleaved caspase-9 expression at 0.1 to 0.4 uM incubated for 48 hrs by Western blot analysis; format: functional, cell-based; settings: Homo sapiens, dose 0.1-0.4 µM
[7] = target: T1, Friend leukemia integration 1 transcription factor (Homo sapiens) (UniProt Q01543); test: Inhibition of Fli-1 in HEL cells by Western blot analysis; format: cell-based; settings: dose 0.1-0.4 µM
T1 sequence (whole entry): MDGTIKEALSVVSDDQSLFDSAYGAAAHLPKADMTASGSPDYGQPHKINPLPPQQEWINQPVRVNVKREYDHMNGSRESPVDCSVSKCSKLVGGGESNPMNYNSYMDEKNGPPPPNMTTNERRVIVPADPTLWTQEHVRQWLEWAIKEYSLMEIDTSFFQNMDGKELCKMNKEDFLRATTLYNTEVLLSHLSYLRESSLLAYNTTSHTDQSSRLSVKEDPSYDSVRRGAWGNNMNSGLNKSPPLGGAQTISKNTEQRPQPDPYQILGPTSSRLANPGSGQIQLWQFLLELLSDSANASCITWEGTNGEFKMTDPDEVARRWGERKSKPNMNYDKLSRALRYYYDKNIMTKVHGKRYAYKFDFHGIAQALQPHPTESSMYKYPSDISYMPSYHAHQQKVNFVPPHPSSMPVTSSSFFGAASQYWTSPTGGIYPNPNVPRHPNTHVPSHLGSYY

[8] = target: T1, Friend leukemia integration 1 transcription factor (Homo sapiens); test: Binding affinity to Fli-1 in HEL cells assessed as increase in thermal stability at 0.4 uM preincubated for 1 hr followed by heating at 40 to 60 degreeC by CETSA assay; format: cell-based

inhibition [7]: Dose-Dependent Effect
Activity [8]: Active
Compound: COc1cc(OC)c2c(c1)O[C@@]1(c3ccc(OCCCCCN4CCN(C)CC4)cc3)[C@H](c3ccccc3)C[C@@H](O)[C@@]21O (racemic; form 2)
Activity (HEL [1]): Active
Activity (HEL [2]): Active
Activity (HEL [3]): Active
Activity (HEL [4]): Active
Activity (HEL [5]): Active
Activity (HEL [6]): Active
